From patent US20020055528A1, “Artemisinin analogs having antimalarial, antiproliferative, and antitumor activities and chemoselective methods of making the same” (priority 1999, published 2002)
Read-outs that look alike come from different tables or passages of the source.

Legend:
MALME-3M = test: NCI 60 cell line screen (SRB), Melanoma; format: cell-based
SK-MEL2 = test: NCI 60 cell line screen (SRB), Melanoma; format: cell-based
SNB-75 = test: NCI 60 cell line screen (SRB), CNS Cancer; format: cell-based
U251 = test: NCI 60 cell line screen (SRB), CNS Cancer; format: cell-based
HCT-15 = test: NCI 60 cell line screen (SRB), Colon Cancer; format: cell-based
NCI-H226 = test: NCI 60 cell line screen (SRB), Non-Small Cell Lung Cancer; format: cell-based
MDA-N = test: NCI 60 cell line screen (SRB), Breast Cancer; format: cell-based
HOP-62 = test: NCI 60 cell line screen (SRB), Non-Small Cell Lung Cancer; format: cell-based
A498 = test: NCI 60 cell line screen (SRB), Renal Cancer; format: cell-based
TK-10 = test: NCI 60 cell line screen (SRB), Renal Cancer; format: cell-based
MOLT-4 = system: MOLT-4
Description: The screening assay is performed on 96-well microtitre plates. Relatively high initial inoculation densities are used, in order to permit measurement of “time-zero” values and to enhance the screen's ability to detect and provide some differentiation between antiproliferative and cytotoxic response parameters. […] The inoculated microtitre plates are pre-incubated for 24 hours at 37θC prior to drug additions. The five drug dilutions tested routinely range from 10^−4 to 10^−8 molar. Higher or lower concentration ranges may be selected on a nonroutine basis if appropriate solubility and/or prior biological information or other screening data so dictate. Duplicate wells are prepared for all concentrations, (concentration is often denoted by placing brackets around a number); “time-zero” and “no drug” controls are also provided for each test. The minimum amount of compound required for a one-time evaluation in the routine screen can be calculated from the knowledge that each test requires a total of approximately 40 ml (0.04 liter) of cell culture medium containing the highest desired drug concentration. Thus, the amount (grams) of sample required (assuming an upper test concentration limit of 10^−4 M) is: molecular weight of compound×[…]. After a 48 hour incubation (37θC) with the test compound, the cells are fixed in situ to the bottoms of the microtitre wells by addition of 50 ul of either 50% trichloroacetic acid (for adherent cell lines) or 80% trichloroacetic acid (for settled cell suspension lines), followed by incubation for 60 minutes at 4θC. The cellular protein in each well is assayed using a sulforhodamine B (SRB) stain procedure. Briefly, after discarding the supernatants, the microtitre plates are washed 5 times with deionized water and air-dried. One hundred microliters of SRB solution (0.4% w/v in 1% acetic acid) is added to each microtitre well and incubated for 10 minutes at room temperature. Unbound SRB is removed by washing 5 times with 1 % acetic acid. The plates are air-dried, the bound stain is solubilized with Tris buffer, and the optical densities read at 515 nm. SRB is a bright pink anionic dye which, in dilute acetic acid, binds electrostatically to the basic amino acids of TCA-fixed cells. Cryopreserved master stocks of all the lines are maintained, and cultures used for screening are replaced from the master stock after no more than twenty passages in the screening laboratory. The cell line panel consists of 60 lines, organized into nine, disease-related subpanels including leukemia, non-small-cell lung cancer, colon, CNS, melanoma, ovarian, renal, prostate and breast cancers.
The response parameters G150 and LC50 are interpolated values representing the concentrations at which the percentage growth (PG) is +50 and −50, respectively:
GI50 is the concentration for which the PG=+50. At this value the increase from time tzero, in the number or mass of cells in the test well is only 50% as much as the corresponding increase in the control well during this period of the experiment, see Table II. A drug effect of this intensity is interpreted as primary growth inhibition.
TGI is the concentration for which PG=0. At this value the number or mass of cells in the well at the end of the experiment equals the number or mass of cells in the well at time tzero, see Table III. A drug effect of this intensity is regarded as cytostasis.
LC50 is the concentration for which the PG=−50. At this value, the number or mass of cells in the test well at the end of the experiment is half that at time tzero, see Table IV. This is interpreted as cytotoxicity.

HS 578T = test: NCI 60 cell line screen (SRB), Breast Cancer; format: cell-based
IGROVI = test: NCI 60 cell line screen (SRB), Ovarian Cancer; format: cell-based
MCF7 = test: NCI 60 cell line screen (SRB), Breast Cancer; format: cell-based
SN12C = test: NCI 60 cell line screen (SRB), Renal Cancer; format: cell-based
786-0 = test: NCI 60 cell line screen (SRB), Renal Cancer; format: cell-based
OVCAR-3 = test: NCI 60 cell line screen (SRB), Ovarian Cancer; format: cell-based; conditions: PG=0
NCI/ADR-RES = test: NCI 60 cell line screen (SRB), Breast Cancer; format: cell-based
CAKI-1 = test: NCI 60 cell line screen (SRB), Renal Cancer; format: cell-based
EKVX = test: NCI 60 cell line screen (SRB), Non-Small Cell Lung Cancer; format: cell-based
SW-620 = test: NCI 60 cell line screen (SRB), Colon Cancer; format: cell-based

For CC1=C(C=Cc2cccc(C=CC3=C(C)C4CCC(C)C5CCC6(C)OOC45C(O3)O6)c2)OC2OC3(C)CCC4C(C)CCC1C24OO3 (centres unmarked) [VII-f], the Log10TGI (MALME-3M; PG=0) was −4.82 log10M, the Log10GI50 (MALME-3M; PG=+50) was −5.65 log10M and the Log10GI50 (MALME-3M; Table IV (LC50, PG=−50)) was >−4.00 log10M. For the same compound, the Log10TGI (SK-MEL2; PG=0) was −4.26 log10M, the “Log10 GI50 or LC50 (per conditions)” value (SK-MEL2; PG=+50) was −5.85 log10M and the “Log10 GI50 or LC50 (per conditions)” value (SK-MEL2; Table IV (LC50, PG=−50)) was >−4.00 log10M. The “Log10 GI50 (PG=+50) or LC50 (PG=−50)” value (SNB-75; PG=+50) was −5.84 log10M, the “Log10 GI50 (PG=+50) or LC50 (PG=−50)” value (SNB-75; Table IV (LC50, PG=−50)) was >−4.00 log10M and the Log10TGI (U251; PG=0) was >−4.00 log10M. For the same compound, the Log10GI50 (U251; PG=+50) was −6.03 log10M, the Log10GI50 (U251; Table IV (LC50, PG=−50)) was >−4.00 log10M and the Log10TGI (HCT-15; PG=0) was −4.82 log10M. The “log10 GI50 (PG=+50) or LC50 (PG=−50), per row condition” value (HCT-15; PG=+50) was −6.13 log10M, the “log10 GI50 (PG=+50) or LC50 (PG=−50), per row condition” value (HCT-15; Table IV (LC50, PG=−50)) was >−4.00 log10M and the Log10TGI (NCI-H226; PG=0) was >−4.00 log10M. For the same compound, the Log10GI50 (NCI-H226; PG=+50) was −4.61 log10M, the Log10GI50 (NCI-H226; Table IV (LC50, PG=−50)) was >−4.00 log10M and the Log10TGI (MDA-N; PG=0) was −4.18 log10M. For the same compound, the Log10GI50 (MDA-N; PG=+50) was −5.74 log10M, the Log10GI50 (MDA-N; Table IV (LC50, PG=−50)) was >−4.00 log10M and the Log10TGI (HOP-62; PG=0) was >−4.00 log10M. The Log10GI50 (HOP-62; PG=+50) was −5.77 log10M, the Log10GI50 (HOP-62; Table IV (LC50, PG=−50)) was >−4.00 log10M and the Log10TGI (A498; PG=0) was −4.37 log10M. The Log10GI50 (A498; PG=+50) was −4.79 log10M, the Log10GI50 (A498; Table IV (LC50, PG=−50)) was >−4.00 log10M and the Log10TGI (TK-10; PG=0) was >−4.00 log10M. The Log10GI50 (TK-10; PG=+50) was −5.44 log10M, the Log10GI50 (TK-10; Table IV (LC50, PG=−50)) was >−4.00 log10M and the “drug concentration for cytotoxicity (percentage growth −50)” value (MOLT-4) was “greater than 10^−4 M”. The “drug concentration for cytostasis (percentage growth 0)” value (MOLT-4; MOLT-4, FIGS. 6a-6e) was “approximately 10^−4 M”, the “drug concentration for primary growth inhibition (percentage growth +50)” value (MOLT-4; MOLT-4, FIGS. 6a-6e) was “greater than 10^−6 molar” and the Log10GI50 (MOLT-4; MOLT-4, PG=+50) was −6.23 log10M. The Log10TGI (MOLT-4; MOLT−4, PG=0) was −6.23 log10M, the Log10GI50 (MOLT-4; Table IV (LC50, PG=−50), MOLT−4) was >−4.00 log10M and the Log10TGI (HS 578T; PG=0) was −4.31 log10M. For the same compound, the Log10GI50 (HS 578T; PG=+50) was −5.94 log10M, the Log10GI50 (HS 578T; Table IV (LC50, PG=−50)) was >−4.00 log10M and the Log10TGI (IGROVI; PG=0) was >−4.00 log10M. The Log10GI50 (IGROVI; PG=+50) was −4.55 log10M, the Log10GI50 (IGROVI; Table IV (LC50, PG=−50)) was >−4.00 log10M and the Log10TGI (MCF7; PG=0) was >−4.00 log10M. For the same compound, the Log10GI50 (MCF7; PG=+50) was −6.06 log10M, the Log10GI50 (MCF7; Table IV (LC50, PG=−50)) was >−4.00 log10M and the Log10TGI (SN12C; SN12C, PG=0) was >−4.00 log10M. For the same compound, the Log10GI50 (SN12C; SNI2C, PG=+50) was −5.73 log10M, the Log10GI50 (SN12C; Table IV (LC50, PG=−50), SN12C) was >−4.00 log10M and the Log10TGI (786-0; PG=0) was >−4.00 log10M. The Log10GI50 (786-0; PG=+50) was −5.40 log10M, the Log10GI50 (786-0; Table IV (LC50, PG=−50)) was >−4.00 log10M and the Log10TGI (OVCAR-3) was >−4.00 log10M. The Log10TGI (NCI/ADR-RES; PG=0) was −4.34 log10M, the Log10GI50 (NCI/ADR-RES; PG=+50) was −5.29 log10M and the Log10GI50 (NCI/ADR-RES; Table IV (LC50, PG=−50)) was >−4.00 log10M. The Log10TGI (CAKI-1; PG=0) was >−4.00 log10M, the Log10GI50 (CAKI-1; PG=+50) was −5.17 log10M and the Log10GI50 (CAKI-1; Table IV (LC50, PG=−50)) was >−4.00 log10M. The Log10TGI (EKVX; PG=0) was −4.58 log10M, the Log10GI50 (EKVX; PG=+50) was −6.21 log10M and the Log10GI50 (EKVX; Table IV (LC50, PG=−50)) was >−4.00 log10M. For the same compound, the Log10TGI (SW-620; PG=0) was >−4.00 log10M and the Log10GI50 (SW-620; PG=+50) was −5.90 log10M.
